Laboratory results taken from paper PMC7464559, “Synthesis, Optimization, Antifungal Activity, Selectivity, and CYP51 Binding of New 2-Aryl-3-azolyl-1-indolyl-propan-2-ols” (Pharmaceuticals, 2020).
Values after ≈ are worked out from the molar mass of the structure shown.

What was measured:
CK98003 (Candida krusei) = assay: Anti-Candida in vitro assay, CK98003; type: cell-based; conditions: Pichia kudriavzevii; Candida krusei CK98003, mean of triplicate; read-out: MIC (IC80) CK98003
Description: (§1) Test fungal strains were obtained from the American Type Culture Collection (ATCC) or were clinical isolates from the Laboratory of Parasitology and Medical Mycology, Centre Hospitalier Universitaire (CHU) of Nantes. The strains were maintained on Sabouraud agar slants and were subcultured 24 h before used. The activity of the target compounds 8a–g and 11a–m was determined by the method previously described. Briefly, molecules were diluted in RPMI 1640 medium supplemented with 0.165 M morpholinopropanesulphonic acid (Sigma-Aldrich, Saint-Quentin Fallavier, France), 2% glucose, and antibiotics. Candida suspensions were prepared in RPMI 1640 medium (Sigma-Aldrich, Saint-Quentin Fallavier, France) adjusted to give a final concentration of 10^3 cells/mL, and a 96-well microplate (Nunc, D. Dutscher, Brumath, France) was seeded with 100 µL. Each concentration of molecules (100 µL) to be tested was added (in triplicate) and plates were incubated at 37 °C for 24 h. The cellular viability was evaluated on the Fluorolite 1000 (Dynatech, France) with an excitation at 550 nm and an emission at 590 nm after a 4 h incubation with 10 µL of Alamar Blue®. […] MIC was expressed as the mean of the triplicate values. KTC and FLC were used as standards.

[1] = test system: CA98002 (Candida albicans); assay: Anti-Candida in vitro assay, CA98002; type: cell-based; conditions: Candida albicans CA98002, mean of triplicate; read-out: MIC (IC80) CA98002
Description: as §1

[2] = test system: CL98001 (Candida lusitaniae); assay: Anti-Candida in vitro assay, CL98001; type: cell-based; conditions: Clavispora lusitaniae; Candida lusitaniae CL98001, mean of triplicate; read-out: MIC (IC80) CL98001
Description: as §1

[3] = test system: ATCC90018 Candida parapsilosis strain; assay: Anti-Candida in vitro assay, ATCC90018; type: cell-based; conditions: Lodderomyces parapsilosis; Candida parapsilosis ATCC90018, mean of triplicate; read-out: MIC (IC80) ATCC90018
Description: as §1

C. albicans CA98001 = assay: Anti-Candida in vitro assay (Alamar Blue), C. albicans CA98001; type: cell-based; conditions: Candida albicans, CA98001, 24 h, MIC = IC80, 24 h at 37 °C, mean of triplicate
Description: as §1

MRC5 toxicity assay = type: cell-based, human; conditions: human, MRC-5 human fetal lung fibroblast cells, MRC-5 cells, 96-h incubation, mean of triplicate; read-out: Cytotoxicity IC50 on MRC-5 cells
Description: The cytotoxicity of compounds was studied with human fibroblast (MRC5). Cells were grown in RPMI 1640 medium (Sigma-Aldrich, Saint-Quentin Fallavier, France) supplemented with 10% fetal bovin serum (Sigma–Aldrich). Drugs were tested at three concentrations (100, 10, and 1 µM) in triplicate. After a 96-h incubation time, cytotoxicity was measured on the Fluorolite 1000 (Dynatech, Guyancourt, France) after a 4-h incubation time with Uptiblue® (Interchim, Montluçon, France). Inhibitory concentration 50 is a mean of triplicate values. A toxicity index was determined as follow: IC50 against MRC5/Geometric mean of the MICs against Candida spp..

[4] = test system: ATCC6258 Candida krusei strain; assay: Anti-Candida in vitro assay, ATCC6258; type: cell-based; conditions: Pichia kudriavzevii; Candida krusei ATCC6258, mean of triplicate; read-out: MIC (IC80) ATCC6258
Description: as §1

CK98002 (Candida krusei) = assay: Anti-Candida in vitro assay, CK98002; type: cell-based; conditions: Pichia kudriavzevii; Candida krusei CK98002, mean of triplicate; read-out: MIC (IC80) CK98002
Description: as §1

[5] = test system: CA98005 (Candida albicans); assay: Anti-Candida in vitro assay, CA98005; type: cell-based; conditions: Candida albicans CA98005, mean of triplicate; read-out: MIC (IC80) CA98005
Description: as §1

[6] = test system: ATCC2091 Candida albicans strain; assay: Anti-Candida in vitro assay, ATCC2091; type: cell-based; conditions: Candida albicans ATCC2091, mean of triplicate; read-out: MIC (IC80) ATCC2091
Description: as §1

OC(Cn1ccnc1)(Cn1ccc2ccccc21)c1ccc(Cl)cc1Cl (stereo not shown) [Compound 8e, 2-(2,4-Dichlorophenyl)-1-(1H-imidazol-1-yl)-3-(1H-indol-1-yl)propan-2-ol]
MIC (CK98003 (Candida krusei)): 0.28 µg/mL (≈ 0.725 µM) | melting point: 212 to 213 °C | MIC [1]: 0.251 µg/mL (≈ 0.65 µM) | MIC [2]: 0.116 µg/mL (≈ 0.3 µM) | MIC [3]: 0.24 µg/mL (≈ 0.621 µM) | MIC (C. albicans CA98001): 0.062 µg/mL (≈ 0.161 µM) | IC50 at 96 h (MRC5 toxicity assay): 31 µM | MIC [4]: 1.2 µg/mL (≈ 3.11 µM) | MIC (CK98002 (Candida krusei)): 1.8 µg/mL (≈ 4.66 µM) | MIC [5]: 0.274 µg/mL (≈ 0.709 µM) | MIC [6]: 0.19 µg/mL (≈ 0.492 µM)

Cc1cn(CC(O)(Cn2cncn2)c2ccc(F)cc2F)c2ccccc12 (stereo not shown) [Compound 11h, 2-(2,4-Difluorophenyl)-3-(3-methyl-1H-indol-1-yl)-1-(1H-1,2,4-triazol-1-yl)propan-2-ol]
MIC (CK98003 (Candida krusei)): 0.7 µg/mL (≈ 1.9 µM) | melting point: 112 to 113 °C | MIC [1]: 0.033 µg/mL (≈ 0.0896 µM) | MIC [2]: 0.023 µg/mL (≈ 0.0624 µM) | MIC [3]: 0.309 µg/mL (≈ 0.839 µM) | IC50 at 96 h (MRC5 toxicity assay): 105 µM | MIC [4]: 1.4 µg/mL (≈ 3.8 µM) | MIC (CK98002 (Candida krusei)): 0.81 µg/mL (≈ 2.2 µM) | MIC [5]: 0.265 µg/mL (≈ 0.719 µM) | MIC [6]: 0.136 µg/mL (≈ 0.369 µM)

OC(Cn1ccnc1)(Cn1ccc2ccccc21)c1ccc(Cl)cc1 (stereo not shown) [Compound 8b, 2-(4-Chlorophenyl)-1-(1H-imidazol-1-yl)-3-(1H-indol-1-yl)propan-2-ol]
MIC (CK98003 (Candida krusei)): > 35.2 µg/mL | melting point: 201 to 202 °C | MIC [1]: 0.165 µg/mL (≈ 0.469 µM) | MIC [2]: 0.222 µg/mL (≈ 0.631 µM) | MIC [3]: 1.3 µg/mL (≈ 3.69 µM) | MIC (C. albicans CA98001): 0.02 µg/mL (≈ 0.0568 µM) | IC50 at 96 h (MRC5 toxicity assay): 37 µM | MIC [4]: > 35.2 µg/mL | MIC (CK98002 (Candida krusei)): 2.72 µg/mL (≈ 7.74 µM) | MIC [5]: 0.106 µg/mL (≈ 0.301 µM) | MIC [6]: 0.215 µg/mL (≈ 0.611 µM)

OC(Cn1cncn1)(Cn1ccc2ccccc21)c1ccc(Br)cc1 (stereo not shown) [Compound 11c, 2-(4-Bromophenyl)-3-(1H-indol-1-yl)-1-(1H-1,2,4-triazol-1-yl)propan-2-ol]
MIC (CK98003 (Candida krusei)): 2.5 µg/mL (≈ 6.3 µM) | melting point: 186 to 187 °C | MIC [1]: 0.338 µg/mL (≈ 0.851 µM) | MIC [2]: 0.215 µg/mL (≈ 0.541 µM) | MIC [3]: 2.03 µg/mL (≈ 5.1 µM) | MIC (C. albicans CA98001): 0.027 µg/mL (≈ 0.068 µM) | IC50 at 96 h (MRC5 toxicity assay): 38 µM | MIC [4]: 1.51 µg/mL (≈ 3.8 µM) | MIC (CK98002 (Candida krusei)): 2.46 µg/mL (≈ 6.2 µM) | MIC [5]: 0.286 µg/mL (≈ 0.72 µM) | MIC [6]: 0.477 µg/mL (≈ 1.2 µM)

OC(Cn1ccnc1)(Cn1ccc2ccccc21)c1ccc(C(F)(F)F)cc1 (stereo not shown) [Compound 11e, 1-(1H-Imidazol-1-yl)-3-(1H-indol-1-yl)-2-(4-trifluoromethylphenyl)propan-2-ol]
MIC (CK98003 (Candida krusei)): 16.2 µg/mL (≈ 42.1 µM) | melting point: 246 to 247 °C | MIC [1]: 0.32 µg/mL (≈ 0.83 µM) | MIC [2]: 0.173 µg/mL (≈ 0.449 µM) | MIC [3]: 2.47 µg/mL (≈ 6.4 µM) | MIC (C. albicans CA98001): 0.23 µg/mL (≈ 0.597 µM) | IC50 at 96 h (MRC5 toxicity assay): 36 µM | MIC [4]: 22.1 µg/mL (≈ 57.4 µM) | MIC (CK98002 (Candida krusei)): 18.3 µg/mL (≈ 47.5 µM) | MIC [5]: 0.258 µg/mL (≈ 0.669 µM) | MIC [6]: 2.12 µg/mL (≈ 5.5 µM)

OC(Cn1ccnc1)(Cn1ccc2ccccc21)c1ccc(Br)cc1 (stereo not shown) [Compound 8c, 2-(4-Bromophenyl)-1-(1H-imidazol-1-yl)-3-(1H-indol-1-yl)propan-2-ol]
MIC (CK98003 (Candida krusei)): 36.6 µg/mL (≈ 92.3 µM) | melting point: 134 to 135 °C | MIC [1]: 0.25 µg/mL (≈ 0.631 µM) | MIC [2]: 0.25 µg/mL (≈ 0.631 µM) | MIC [3]: 1.84 µg/mL (≈ 4.64 µM) | MIC (C. albicans CA98001): 0.02 µg/mL (≈ 0.0505 µM) | IC50 at 96 h (MRC5 toxicity assay): 31 µM | MIC [4]: > 39.6 µg/mL | MIC (CK98002 (Candida krusei)): 5.08 µg/mL (≈ 12.8 µM) | MIC [5]: 0.21 µg/mL (≈ 0.53 µM) | MIC [6]: 0.357 µg/mL (≈ 0.901 µM)

OC(Cn1ccnc1)(Cn1ccc2ccccc21)c1ccc(F)cc1 (stereo not shown) [Compound 8a, 2-(4-Fluorophenyl)-1-(1H-imidazol-1-yl)-3-(1H-indol-1-yl)propan-2-ol]
MIC (CK98003 (Candida krusei)): 28.6 µg/mL (≈ 85.3 µM) | melting point: 166 to 167 °C | MIC [1]: 0.205 µg/mL (≈ 0.611 µM) | MIC [2]: 0.231 µg/mL (≈ 0.689 µM) | MIC [3]: 2.11 µg/mL (≈ 6.29 µM) | MIC (C. albicans CA98001): 0.03 µg/mL (≈ 0.0895 µM) | IC50 at 96 h (MRC5 toxicity assay): 50 µM | MIC [4]: > 33.5 µg/mL | MIC (CK98002 (Candida krusei)): 12.8 µg/mL (≈ 38 µM) | MIC [5]: 0.148 µg/mL (≈ 0.441 µM) | MIC [6]: 0.131 µg/mL (≈ 0.391 µM)
